Results on 25 compounds are retold here after patent US20220153745A1, “DISUBSTITUTED BENZOTHIENYL-PYRROLOTRIAZINES AND THEIR USE AS FGFR KINASE INHIBITORS” (Bayer Intellectual Property GmbH, priority 2011, published 2022).

The subject of assay [1] is Human umbilical vein endothelial cells (HUVEC). Briefly: Inhibition of hFGF-2 mediated HUVEC proliferation. The following applies: 72 h. It is filed as cell-based.
The target of the next assay is T1, mTOR (Homo sapiens, UniProt P42345).
T1 construct: human mTOR amino acids from 1360 to 2549; purchased Invitrogen 4753; host or cells: insect cells
T1 sequence (P42345 1360-2549): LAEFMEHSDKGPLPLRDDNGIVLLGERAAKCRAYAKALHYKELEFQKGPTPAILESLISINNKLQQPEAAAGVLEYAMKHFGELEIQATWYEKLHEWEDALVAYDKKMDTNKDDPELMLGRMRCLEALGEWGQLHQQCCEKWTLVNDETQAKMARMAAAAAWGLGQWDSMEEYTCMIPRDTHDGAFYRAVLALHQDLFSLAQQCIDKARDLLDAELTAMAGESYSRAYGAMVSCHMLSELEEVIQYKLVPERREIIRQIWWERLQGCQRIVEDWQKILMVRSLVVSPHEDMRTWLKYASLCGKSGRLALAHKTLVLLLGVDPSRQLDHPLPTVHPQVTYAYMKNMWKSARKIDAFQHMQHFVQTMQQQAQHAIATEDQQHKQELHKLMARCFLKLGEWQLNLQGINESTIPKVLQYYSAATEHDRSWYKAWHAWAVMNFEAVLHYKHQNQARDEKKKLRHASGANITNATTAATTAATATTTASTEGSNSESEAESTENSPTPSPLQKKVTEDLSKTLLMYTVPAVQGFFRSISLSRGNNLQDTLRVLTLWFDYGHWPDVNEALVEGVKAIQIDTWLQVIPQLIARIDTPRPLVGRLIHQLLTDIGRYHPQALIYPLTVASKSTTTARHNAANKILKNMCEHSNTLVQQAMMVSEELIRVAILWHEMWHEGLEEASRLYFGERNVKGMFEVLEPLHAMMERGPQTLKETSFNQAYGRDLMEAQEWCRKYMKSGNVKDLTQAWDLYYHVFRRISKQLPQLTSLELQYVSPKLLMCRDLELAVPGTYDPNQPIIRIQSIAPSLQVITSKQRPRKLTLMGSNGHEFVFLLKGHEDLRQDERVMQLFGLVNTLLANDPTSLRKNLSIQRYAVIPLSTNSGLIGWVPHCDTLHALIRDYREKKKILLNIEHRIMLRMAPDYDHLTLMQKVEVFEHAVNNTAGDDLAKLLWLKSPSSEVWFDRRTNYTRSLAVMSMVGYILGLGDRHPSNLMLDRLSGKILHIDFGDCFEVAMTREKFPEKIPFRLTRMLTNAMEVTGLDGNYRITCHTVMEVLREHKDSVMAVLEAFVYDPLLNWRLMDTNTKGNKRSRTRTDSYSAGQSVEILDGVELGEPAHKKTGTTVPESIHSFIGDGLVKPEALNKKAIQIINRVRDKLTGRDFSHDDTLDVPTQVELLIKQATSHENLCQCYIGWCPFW
Put plainly: mTOR kinase assay (TR-FRET, for comparative purposes). Conditions: for inhibition at 1 µM: read-out: mTOR % inhibition @ 1 μM, mean inhibition at 1 μM test compound, 40 μM ATP. It is filed as biochemical.

As for `COc1cc(C)cc2cc(-c3c(CNCC(C)O)c(CN4CCOCC4)n4ncnc(N)c34)sc12` (racemic) [Example 53, rac-1-({[4-Amino-5-(7-methoxy-5-methyl-1-benzothiophen-2-yl)-7-(morpholin-4-ylmethyl)pyrrolo[2,1-f][1,2,4]triazin-6-yl]methyl}amino)propan-2-ol], the IC50 in assay [1] came out at 3.3 nM. On mTOR, the inhibition at 1 µM amounted to 3.3%.
On to `COc1cc(C)cc2cc(-c3c(CO)c(CN4CCNC(=O)C4)n4ncnc(N)c34)sc12` [Example 13, 4-{[4-Amino-6-(hydroxymethyl)-5-(7-methoxy-5-methyl-1-benzothiophen-2-yl)pyrrolo[2,1-f][1,2,4]-triazin-7-yl]methyl}piperazin-2-one], for which the IC50 in assay [1] is 17 nM. For the same compound, on mTOR, the inhibition at 1 µM came to 14.9%.
The like results for `COc1cc(C)cc2cc(-c3c(COCCO)c(CN4CCNC(=O)C4)n4ncnc(N)c34)sc12` [Example 21, 4-({4-Amino-6-[(2-hydroxyethoxy)methyl]-5-(7-methoxy-5-methyl-1-benzothiophen-2-yl)pyrrolo[2,1-f][1,2,4]triazin-7-yl}methyl)piperazin-2-one formiate] were, in that order, 3.7 nM and 5%.
In the same order, the values of `COc1cc(C)cc2cc(-c3c(COC4CCC4)c(CN4CCNCC4)n4ncnc(N)c34)sc12` [Example 26, 6-[(Cyclobutyloxy)methyl]-5-(7-methoxy-5-methyl-1-benzothiophen-2-yl)-7-(piperazin-1-ylmethyl)pyrrolo[2,1-f][1,2,4]triazin-4-amine] are 56.7 nM and 6.8%.
The like results for `COc1cc(C)cc2cc(-c3c(COCC(N)=O)c(CN4CCN(C(C)=O)CC4)n4ncnc(N)c34)sc12` [Example 34, 2-({7-[(4-Acetylpiperazin-1-yl)methyl]-4-amino-5-(7-methoxy-5-methyl-1-benzothiophen-2-yl)pyrrolo[2,1-f][1,2,4]triazin-6-yl}methoxy)acetamide] were, in that order, 37.3 nM and 25.9%.
Regarding `COc1cc(C)cc2cc(-c3c(CN[C@H]4CCNC4=O)c(CN4CCOCC4)n4ncnc(N)c34)sc12` [Example 51, (3S)-3-({[4-Amino-5-(7-methoxy-5-methyl-1-benzothiophen-2-yl)-7-(morpholin-4-ylmethyl)pyrrolo[2,1-f][1,2,4]triazin-6-yl]methyl}amino)pyrrolidin-2-one], the IC50 in assay [1] was 1.2 nM. Besides, the inhibition at 1 µM on mTOR was 8.4%.
With `COc1cc(C)cc2cc(-c3c(CN4CCNC(=O)C4)c(CN4CCOCC4)n4ncnc(N)c34)sc12` [Example 52, 4-{[4-Amino-5-(7-methoxy-5-methyl-1-benzothiophen-2-yl)-7-(morpholin-4-ylmethyl)pyrrolo[2,1-f][1,2,4]triazin-6-yl]methyl}piperazin-2-one], in assay [1], the IC50 amounted to 4 nM. Besides, the inhibition at 1 µM on mTOR was 4.2%.
`COc1cc(C)cc2cc(-c3c(CNCC(C)(C)O)c(CN4CCOCC4)n4ncnc(N)c34)sc12` [Example 54, 1-({[4-Amino-5-(7-methoxy-5-methyl-1-benzothiophen-2-yl)-7-(morpholin-4-ylmethyl)pyrrolo[2,1-f][1,2,4]triazin-6-yl]methyl}amino)-2-methylpropan-2-ol] yielded an IC50 in assay [1] of 2.2 nM. Further, the inhibition at 1 µM at mTOR came out at 1.7%.
The like results for `COc1cc(C)cc2cc(-c3c(CN[C@@H]4CCNC4=O)c(CN4CCN(C(C)=O)CC4)n4ncnc(N)c34)sc12` [Example 56, (3R)-3-[({7-[(4-Acetylpiperazin-1-yl)methyl]-4-amino-5-(7-methoxy-5-methyl-1-benzothiophen-2-yl)pyrrolo[2,1-f][1,2,4]triazin-6-yl}methyl)amino]pyrrolidin-2-one] were, in that order, 18.1 nM and 16.1%.
In the same order, the values of `COc1cc(C)cc2cc(-c3c(CNCC(C)(C)O)c(CN4CCN(C(C)=O)CC4)n4ncnc(N)c34)sc12` [Example 57, 1-(4-{[4-Amino-6-{[(2-hydroxy-2-methylpropyl)amino]methyl}-5-(7-methoxy-5-methyl-1-benzothiophen-2-yl)pyrrolo[2,1-f][1,2,4]triazin-7-yl]methyl}piperazin-1-yl)ethanone] are 3.2 nM and 2%.
As to `COc1cc(C)cc2cc(-c3c(CN4CCNC(=O)C4)c(CN4CCN(C(C)=O)CC4)n4ncnc(N)c34)sc12` [Example 59, 4-({7-[(4-Acetylpiperazin-1-yl)methyl]-4-amino-5-(7-methoxy-5-methyl-1-benzothiophen-2-yl)pyrrolo[2,1-f][1,2,4]triazin-6-yl}methyl)piperazin-2-one], in assay [1], the midpoint of inhibition, the IC50, lay at 51.1 nM. At mTOR, the inhibition at 1 µM is 0.8%.
For the compound `COC(=O)c1c(-c2cc3cc(C)cc(OC)c3s2)c2c(N)ncnn2c1C(=O)N1CCNCC1` [Example 60, Methyl 4-amino-5-(7-methoxy-5-methyl-1-benzothiophen-2-yl)-7-(piperazin-1-ylcarbonyl)pyrrolo[2,1-f][1,2,4]triazine-6-carboxylate bis(formiate)], the IC50 in assay [1] came out at 250 nM. Besides, the inhibition at 1 µM at mTOR came out at 11.1%.
For the compound `COc1cc(C)cc2cc(-c3c(CNC(C)=O)c(CN4CCNC(=O)C4)n4ncnc(N)c34)sc12` [Example 67, N-({4-Amino-5-(7-methoxy-5-methyl-1-benzothiophen-2-yl)-7-[(3-oxopiperazin-1-yl)methyl]-pyrrolo[2,1-f][1,2,4]triazin-6-yl}methyl)acetamide], the IC50 in assay [1] worked out at 12.1 nM. Further, the inhibition at 1 µM on mTOR was 8.4%.
In the same order, the values of `COc1cc(C)cc2cc(-c3c(CO)c(C#N)n4ncnc(N)c34)sc12` [Example 68, 4-Amino-6-(hydroxymethyl)-5-(7-methoxy-5-methyl-1-benzothiophen-2-yl)pyrrolo[2,1-f][1,2,4]-triazine-7-carbonitrile] are 14.4 nM and 8%.
In the same order, the values of `COc1cc(C)cc2cc(-c3c(CNC(C)=O)c(CNC(C)=O)n4ncnc(N)c34)sc12` [Example 72, N,N′-{[4-Amino-5-(7-methoxy-5-methyl-1-benzothiophen-2-yl)pyrrolo[2,1-f][1,2,4]triazine-6,7-diyl]bis(methylene)}diacetamide] are 1.6 nM and 8.2%.
In assay [1], `COc1cc(C)cc2cc(-c3c(CO)c(C(C)(C)O)n4ncnc(N)c34)sc12` [Example 73, 2-[4-Amino-6-(hydroxymethyl)-5-(7-methoxy-5-methyl-1-benzothiophen-2-yl)pyrrolo[2,1-f][1,2,4]-triazin-7-yl]propan-2-ol] registered an IC50 of 5.5 nM. Moreover, the inhibition at 1 µM at mTOR was determined as 18.5%.
For `COc1cc(C)cc2cc(-c3c(CN4CCNC(=O)C4)c(C(C)(C)O)n4ncnc(N)c34)sc12` [Example 74, 4-{[4-Amino-7-(2-hydroxypropan-2-yl)-5-(7-methoxy-5-methyl-1-benzothiophen-2-yl)pyrrolo[2,1-f][1,2,4]triazin-6-yl]methyl}piperazin-2-one], in assay [1], half-maximal inhibition (IC50) required 0.2 nM. In addition, the inhibition at 1 µM at mTOR was determined as 18.6%.
In the case of `COc1cc(C)cc2cc(-c3c(CO)c(C)n4ncnc(N)c34)sc12` [Example 75, [4-Amino-5-(7-methoxy-5-methyl-1-benzothiophen-2-yl)-7-methylpyrrolo[2,1-f][1,2,4]triazin-6-yl]-methanol], the half-inhibitory concentration (IC50) in assay [1] was 1.5 nM. Besides, the inhibition at 1 µM at mTOR came out at 10.2%.
The like results for `COc1cc(C)cc2cc(-c3c(CN4CCNC(=O)C4)c(C)n4ncnc(N)c34)sc12` [Example 76, 4-{[4-Amino-5-(7-methoxy-5-methyl-1-benzothiophen-2-yl)-7-methylpyrrolo[2,1-f][1,2,4]triazin-6-yl]methyl}piperazin-2-one] were, in that order, 1.5 nM and 8.5%.
On to `COc1cc(C)cc2cc(-c3c(CNCC(C)(C)O)c(C)n4ncnc(N)c34)sc12` [Example 77, 1-({[4-Amino-5-(7-methoxy-5-methyl-1-benzothiophen-2-yl)-7-methylpyrrolo[2,1-f][1,2,4]triazin-6-yl]methyl}amino)-2-methylpropan-2-ol formiate], for which, in assay [1], the concentration for half-maximal inhibition (IC50) came to 3.2 nM. Moreover, the “mTOR % inhibition @ 1 μM” value at mTOR (mean inhibition at 1 μM test compound, 40 μM ATP) is on record as 0.7%.
In assay [1], `COc1cc(C)cc2cc(-c3c(CO)c(Cl)n4ncnc(N)c34)sc12` [Example 79, [4-Amino-7-chloro-5-(7-methoxy-5-methyl-1-benzothiophen-2-yl)pyrrolo[2,1-f][1,2,4]triazin-6-yl]-methanol] displayed an IC50 of 3.5 nM. In addition, the inhibition at 1 µM at mTOR was 14.7%.
In the same order, the values of `COc1cc(C)cc2cc(-c3c(CNCC(C)(C)O)c(Cl)n4ncnc(N)c34)sc12` [Example 81, 1-({[4-Amino-7-chloro-5-(7-methoxy-5-methyl-1-benzothiophen-2-yl)pyrrolo[2,1-f][1,2,4]triazin-6-yl]methyl}amino)-2-methylpropan-2-ol formiate] are 1.6 nM and 4.1%.
The like results for `COc1cc(C)cc2cc(-c3c(C)c(CN4CCNCC4)n4ncnc(N)c34)sc12` [Example 84, 5-(7-Methoxy-5-methyl-1-benzothiophen-2-yl)-6-methyl-7-(piperazin-1-ylmethyl)pyrrolo[2,1-f][1,2,4]triazin-4-amine formiate] were, in that order, 46.6 nM and 9.1%.
Regarding `CCOCc1c(-c2cc3cc(C)cc(OC)c3s2)c2c(N)ncnn2c1CN1CCS(=O)(=O)CC1` [Example 99], the inhibition at 1 µM at mTOR was 5.3%.
Take `CCOCc1c(-c2cc3cc(C)cc(OC)c3s2)c2c(N)ncnn2c1C(=O)NCCO` [Example 108]: the inhibition at 1 µM at mTOR was found to be 8.5%.
